# Experimental data as given in patent publication US20090196918A1, “Liposomal formulations of hydrophobic lactone drugs in the presence of metal ions” (University of Kentucky Research Foundation, priority 2008, published 2009).
# Tests used:
# [1] = Release of DB-67 from liposomes (dialysis at 37° C., HPLC analysis); assay type: physicochemical
# Method: The drug/cyclodextrin solution was used to hydrate phospholipids (DSPC, 40 mg/ml) with vigorous shaking at 60° C. to form a suspension of multilamellar vesicles. The suspension was extruded through a high-pressure extruder to form unilamellar vesicles. […] A small amount of this micellar solution was added to the unilamellar vesicles following extrusion and incubated at 60° C. for 5 min. The vesicles were then cooled at room temperature and stored below 5° C. until use. Prior to use, liposomes were separated from unentrapped drug by passing through a gel filtration column which was pre-equilibrated with pH 7.4 “carbonated” phosphate buffered saline (PBS). “Carbonated” PBS was prepared at physiological concentration of carbonate, phosphate and sodium chloride such that the total solute concentration of the buffer was isoosmotic with that of whole blood. […] 100 μl samples were taken from inside the dialysis tube at various time intervals and diluted into 900 μl of ice-cold solution of methanol and acetonitrile (2:1, v/v) at -25° C. Following dilution samples were stored at -25° C. until HPLC analysis. […] Liposomes were separated from the unentrapped drug and HPβCD by size exclusion chromatography on Sephadex® columns. […] The pipette tip used for sampling was washed in the same quenching solution to transfer any adsorbed drug. […] Following dialysis, samples were withdrawn from the dialysis tube, diluted into methanol, and stored at -25° C. until HPLC analysis. […] The sampling and processing conditions were the same as in the pH-permeability studies described earlier. The effect of varying intravesicular pH on the apparent permeability was probed only at a single (50 mM) cyclodextrin concentration.
# [2] = animal data, intravenous administration; cited from earlier work
# [3] = Drug loading of DB-67 into liposomes by passive encapsulation
structure (smiles),measurement,setting,value
"CC[C@@]1(O)C(=O)OCc2c1cc1n(c2=O)Cc2c-1nc1ccc(O)cc1c2[Si](C)(C)C(C)(C)C [DB-67, 7-t-butyldimethylsilyl-10-hydroxycamptothecin]",drug retention in liposomes as a function of pH,"[1]; increasing pH, intravesicular cyclodextrin constant at 50 mM (FIG. 4)",increases drug retention
same,release profile of DB-67 from liposomes,"[1]; liposomes prepared at pH 4, citrate buffer, 0.1 M hydroxypropyl-β-cyclodextrin (FIG. 2)",uniform release profile
same,release profile of DB-67 from liposomes,"[1]; liposomes prepared at pH 7.4, citrate buffer, 0.1 M hydroxypropyl-β-cyclodextrin (FIG. 3)",uniform release
same,lactone to total AUC,[2],> 90%
same,DB-67 concentration of liposome suspension that could be prepared (loading),"[3]; absence of cyclodextrin, all drug is entrapped",0.05 mg/mL
same,DB-67 concentration of liposome suspension that could be prepared (loading),"[3]; intraliposomal pH increased to 9.5, with hydroxypropyl-β-cyclodextrin",1.4 mg/mL
